From PMC9501633, “Synthesis, Characterisation and Mechanism of Action of Anticancer 3-Fluoroazetidin-2-ones” (Pharmaceuticals, 2022) come the findings set out here.

One data set concerns MCF-7 cells. Kind of data set: Annexin V-FITC/PI apoptosis assay (flow cytometry). As to conditions: 48 h. Type of data set: cell-based, human. The method, then:
Among the cell death pathways, apoptosis is very important to maintain cellular homeostasis. However, upon severe and irreparable cellular stress, all cells, including cancer cells, undergo apoptosis. In this work, the Annexin V–FITC/PI double-staining method was used in assessing the development of apoptosis when MCF-7 cells are exposed to compound 33 (0.1 and 0.5 μM for 48 h). MCF-7 cells were first treated with compound 33 for 48 h followed by staining with Annexin V–fluorescein isothiocyanate (FITC)/propidium iodide (PI). Live cells (Annexin V^−/PI^−), early apoptotic cells (Annexin V^+/PI^−), late apoptotic cells (Annexin V+/PI+) and necrotic cells (Annexin V^−/PI^+) can be differentiated by tie technique following flow cytometric analysis (Figure 5). The positive control CA-4 (at 50 nM concentration) induced 34.6% Annexin V-positive apoptotic cells, and the vehicle control used was 0.1% ethanol (v/v).
Apoptotic cell death was monitored by flow cytometry using Annexin V and propidium iodide (PI) as previously described by us. MCF-7 cells were seeded in 6-well plates at a density of 1 × 10^5 cells/mL and treated with either vehicle (0.1% (v/v) EtOH) or β-lactam compound 33 at concentrations 0.1 and 0.5 µM for 48 h. Cells were harvested and prepared for flow cytometric analysis. Cells were washed in 1X binding buffer (20X binding buffer: 0.1 M HEPES, pH 7.4; 1.4 M NaCl; 25 mM CaCl2 diluted in dH2O) and incubated in the dark for 30 min on ice in Annexin V-containing binding buffer [1:100]. Cells were then washed in binding buffer and then re-suspended in PI-containing binding buffer (1:1000). Samples were then analysed with the BD Accuri flow cytometer and Prism software. The resulting cell populations were identified as Annexin V- and PI-negative (Q4, healthy cells), Annexin V-positive and PI-negative (Q3, early apoptosis), Annexin V- and PI-positive (Q2, late apoptosis) and Annexin V-negative and PI-positive (Q1, necrosis). The positive control for induction of cell death was […].
Figure 5 Compound 33 induces apoptosis in MCF-7 breast cancer cells. […] .
In general terms: In flow cytometry, cells or beads pass a laser one at a time.

A short description of data set [1]: Stability under degradation conditions (HPLC). Type of data set: physicochemical. As to the method:
The β-lactam ring is known to undergo hydrolysis/degradation depending on the substituent type on the ring. For example, degradation of monocyclic β-lactam antibiotic aztreonam increased with elevated humidity, temperature and acidic pH buffer. Ezetimibe, a monocyclic β-lactam drug used to reduce blood cholesterol, undergoes degradation and hydrolysis more rapidly in neutral and basic pH conditions than in acidic pH [71]. The stability of representative compounds 33 and 39 was also determined at pH 4, pH 7.4 (plasma) and pH 9 (intestine) by HPLC. […] The electron-withdrawing effect of the 3-fluoro substituent may result in decreasing stability of the β-lactam ring in response to acid hydrolysis.
The stability study for compounds 33 and 39 was performed using analytical HPLC (Symmetry column (C18, […], 4.6 × 150 mm), dual wavelength absorbance detector (Waters 2487), binary HPLC pump (Waters 1525) and autosampler (Waters 717 plus)) with mobile phase acetonitrile (70%)/water (30%), flow rate 1 mL/min over 15 min and detection at λ 254 nm. Stock solutions of compounds 33 and 39 (1 mg/mL in mobile phase) were used. Dilutions of 0.5 mg/mL, 0.25 mg/mL, 0.125 mg/mL, 0.0625 mg/mL, 0.03125 mg/mL, 0.015625 mg/mL and 0.0078 mg/mL were prepared for the calibration curve. (i) Stability of 33 and 39 in phosphate buffers: The phosphate buffers were prepared in accordance with the British Pharmacopoeia 2020 at pH values 4, 7.4 and 9. Stock solution, 300 µL (1 mg/mL ACN), was added to a vial containing buffer (9.7 mL), mixed and pre-heated to 37 °C. 1 mL of the solution was introduced into an HPLC vial. Samples (10 µL) were injected and analysed at time intervals of t = 0 min, 5 min, 30 min, 60 min and hourly for 24 h. The analysis was performed in triplicate. (ii) Thermal stability: Compounds 33 and 39 (1 mL stock solution) were each placed in a vial for 4 h at 60 °C on a heating block. The sample was then cooled, diluted with acetonitrile and analysed by HPLC. (iii) Photostability study: Compounds 33 and 39 (stock solution, 1 mL) were placed in a vial, exposed to UV light for 4 h and then analysed by HPLC. (iv) Stability in acidic conditions: HCl (0.1 M, 0.2 mL) was added to stock solutions (0.8 mL) of 33 and 39 in a vial. The vial was vortexed and retained at room temperature. A sample was neutralised with NaOH (0.1 M, 0.2 mL) each hour for 4 h and then analysed by HPLC. (v) Stability of 33 and 39 in basic (alkaline) conditions: NaOH (0.1 M, 0.2 mL) was added to stock solution (0.8 mL) in a vial. The vial was vortexed and retained at room temperature. A sample was neutralised with HCl (0.1 M, 0.2 mL) every hour for 4 h then analysed by HPLC. (vi) Stability of 33 and 39 in oxidising conditions: H2O2 (3%, 0.2 mL) was added to the stock solution (0.8 mL). The vial was vortexed to obtain a homogeneous mixture and retained at room temperature, and a sample was analysed by HPLC every hour for 4 h.

Consider `COc1ccc(/C=C\c2cc(OC)c(OC)c(OC)c2)cc1O` [CA-4, combretastatin A-4, reference compound], for which, in the data set with MCF-7 cells (Homo sapiens, MCF7, MCF-7, 50 nM, read-out: Viable cells), the viability at 0.05 µM was 61.8%. In addition, the “Annexin V-positive apoptotic cells” value in the data set on MCF-7 cells (MCF-7, 50 nM) is on record as 34.6%.
`COc1ccc(C2C(F)C(=O)N2c2cc(OC)c(OC)c(OC)c2)cc1F` (stereo not drawn) [Compound 33, 3-Fluoro-4-(3-fluoro-4-methoxyphenyl)-1-(3,4,5-trimethoxyphenyl)azetidin-2-one]: the viability at 0.1 µM with MCF-7 cells (Homo sapiens, MCF7, MCF-7, 0.1 μM, read-out: Viable cells) amounted to 84.9%. Further, the viability at 0.5 µM in the data set with MCF-7 cells (Homo sapiens, MCF7, MCF-7, 0.5 μM, read-out: Viable cells) was 48.8%. For the same compound, the “apoptosis (early + late)” value with MCF-7 cells (MCF-7, 0.1 μM) came to 14.2%; in the data set with MCF-7 cells (MCF-7, 0.5 μM), 45.9%. The early apoptotic cells with MCF-7 cells (MCF-7, 0.1 μM) was 8.1%; in the data set on MCF-7 cells (MCF-7, 0.5 μM), 22.1%. In addition, the late apoptotic cells came out at 6.1% in the data set with MCF-7 cells (MCF-7, 0.1 μM) and 23.8% in the data set with MCF-7 cells (MCF-7, 0.5 μM). The fraction remaining (in general, the share of the starting amount still present when the sample was taken) at 4 h, 0.8 mg/mL in data set [1] (0.1 M HCl added to stock solution, acidic (0.1 M HCl)) is 60%; in data set [1] (0.1 M NaOH added to stock solution, alkaline (0.1M NaOH)) it was 65%; in data set [1] (3% H2O2 added to stock solution, oxidative (3% H2O2)), 65%. Moreover, the share remaining at 4 h, 1 mg/mL in data set [1] (stock solution in acetonitrile/water under UV light, UV light) worked out at 88%; in data set [1] (stock solution in acetonitrile/water, heated, heat (60 °C)), 90%.
